According to patent US12247029B2, “Heterocyclic compounds as class II phosphoinositide 3-kinase inhibitors” (Forschungsverbund Berlin e.V., priority 2018, dated 2025):

Biological target: PI3KC2α Δ1-298 (Homo sapiens (Human), UniProt O00443)
Assay: ADP-Glo kinase assay with purified PI3KC2α Δ1-298
Format: biochemical
Conditions: not given
Experimental: Previous studies have shown that PI3KC2α can utilize phosphatidylinositol (PI) or phosphatidylinositol 4-phosphate [PI(4)P] to produce PI(3)P or PI(3,4)P2 respectively but with a preference for PI(3,4)P2 production. To verify that purified PI3KC2α Δ1-298 is active, a radioactive kinase assay was performed with PI as a substrate and different amounts of purified PI3KC2α Δ1-298. The lipid product [PI(3)P] was separated on TLC plates, and the PI(3)P signal was correlated with the amount of PI3KC2α used (FIG. 4A). […] After having confirmed the activity of purified PI3KC2α Δ1-298, an assay suitable for high content screens in multiwell format (ADP-Glo™ assay) was established. The ADP-Glo™ assay has been used for universal detection of ATP hydrolysis. This assay measures ATP hydrolysis occurring during a kinase reaction. For detection, generated ADP is re-converted into ATP with the […] and converted into light by the Ultra-Glo™ Luciferase reagent. The luminescent signal reports kinase activity (FIG. 4B).
The ADP-Glo™ assay was first used to determine the linear correlation range of signal with different amounts of kinase, and then to assess the Kms for ATP and for PI. […] Further optimization of this assay allowed us to carry out medium-to-high throughput screening using low amounts of purified enzyme (at fixed concentrations of: ATP=40 μM, PI=200 μM, PI3KC2α A1−298=10 ng/μl).
Primary screens were performed using the ADP-Glo™ assay in a 384-well format. 37, 224 small molecules were screened for their ability to inhibit kinase activity of PI3KC2α Δ1-298. The concentration of each compound used in the primary screens was 10 μM. Kinase incubations with ATP but without PI were used as negative control samples. This primary screen turned out to be robust with an average z′ factor of 0.57, and therefore judged as successful.
ADP-Glo kinase assay was performed as described by the manufacturer's protocol. Briefly, the kinase assay was performed with a […] of liver PI/ATP/purified PI3KC2α for 20 min in kinase reaction buffer described above. To deplete the remaining ATP from the reaction, 5 μl of […] was added to the kinase reaction mixture and incubated for 40 min. For detection, the generated ADP is re-converted into ATP and converted into light by the Ultra-Glo™ luciferase in kinase detection reagent. The luminescent signal positively correlates with kinase activity. All reactions are performed in Corning® 384 well-white plates.

Chain of PI3KC2α Δ1-298 (O00443 299-1686): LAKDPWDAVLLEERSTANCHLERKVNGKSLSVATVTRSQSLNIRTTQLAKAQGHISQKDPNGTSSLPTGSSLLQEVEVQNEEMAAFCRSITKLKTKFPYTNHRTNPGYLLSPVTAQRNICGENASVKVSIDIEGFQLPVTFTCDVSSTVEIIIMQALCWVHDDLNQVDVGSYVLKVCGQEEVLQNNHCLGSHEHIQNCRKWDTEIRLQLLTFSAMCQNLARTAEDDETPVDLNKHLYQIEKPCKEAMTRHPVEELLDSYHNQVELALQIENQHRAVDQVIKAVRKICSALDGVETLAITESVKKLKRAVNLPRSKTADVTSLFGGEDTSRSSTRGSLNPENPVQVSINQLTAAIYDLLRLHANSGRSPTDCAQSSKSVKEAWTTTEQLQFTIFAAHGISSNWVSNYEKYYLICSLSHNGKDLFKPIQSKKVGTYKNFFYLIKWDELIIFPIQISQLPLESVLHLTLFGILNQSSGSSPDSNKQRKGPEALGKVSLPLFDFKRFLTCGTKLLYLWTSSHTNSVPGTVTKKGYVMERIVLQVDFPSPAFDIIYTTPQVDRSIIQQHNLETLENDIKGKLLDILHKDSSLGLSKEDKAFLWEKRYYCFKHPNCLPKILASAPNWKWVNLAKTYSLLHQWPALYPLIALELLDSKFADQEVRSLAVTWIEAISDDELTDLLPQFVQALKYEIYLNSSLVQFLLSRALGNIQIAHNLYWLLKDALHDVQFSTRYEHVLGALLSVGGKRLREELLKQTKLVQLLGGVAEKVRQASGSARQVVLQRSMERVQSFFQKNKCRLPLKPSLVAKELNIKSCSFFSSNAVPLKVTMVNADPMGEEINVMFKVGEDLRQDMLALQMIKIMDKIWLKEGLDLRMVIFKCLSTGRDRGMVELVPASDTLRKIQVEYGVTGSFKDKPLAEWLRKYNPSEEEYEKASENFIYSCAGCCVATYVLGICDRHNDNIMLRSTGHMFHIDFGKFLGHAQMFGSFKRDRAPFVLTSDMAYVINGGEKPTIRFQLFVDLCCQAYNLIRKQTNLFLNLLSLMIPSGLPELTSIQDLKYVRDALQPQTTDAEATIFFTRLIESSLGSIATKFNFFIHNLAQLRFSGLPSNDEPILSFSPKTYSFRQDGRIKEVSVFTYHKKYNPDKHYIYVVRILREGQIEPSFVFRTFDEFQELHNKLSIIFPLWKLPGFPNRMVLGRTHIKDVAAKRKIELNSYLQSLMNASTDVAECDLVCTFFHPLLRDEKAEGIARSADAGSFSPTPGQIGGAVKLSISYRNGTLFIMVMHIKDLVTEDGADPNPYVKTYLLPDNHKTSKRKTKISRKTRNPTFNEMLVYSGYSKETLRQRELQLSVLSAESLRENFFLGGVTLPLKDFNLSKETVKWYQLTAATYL

SMILES | PI3KC2α inhibitory activity (in words, SAR)
O=C(CSc1nc2nccnc2c(=O)n1CCc1cccc(F)c1)Nc1nc(-c2ccc(F)cc2)cs1 [Example Compound 6, 2-((3-(3-Fluorophenethyl)-4-oxo-3,4-dihydropteridin-2-yl)thio)-N-(4-(4-fluorophenyl)thiazol-2-yl)acetamide] | functional compounds
CC(Sc1nc2nccnc2c(=O)n1CCc1cccc(F)c1)C(=O)Nc1nccs1 (stereo not shown) [Example Compound 16, 2-((3-(3-Fluorophenethyl)-4-oxo-3,4-dihydropteridin-2-yl)thio)-N-(thiazol-2-yl)propanamide] | did not disrupt the activity

The remaining lines, values ahead:

PI3KC2α inhibitory activity (in words, SAR) | SMILES
functional compounds | O=C(CSc1nc2nccnc2c(=O)n1CCc1ccccc1)Nc1nc(-c2ccccc2)cs1 [Example Compound 10, 2-((4-Oxo-3-phenethyl-3,4-dihydropteridin-2-yl)thio)-N-(4-phenylthiazol-2-yl)acetamide]
functional compounds | O=C(CSc1nc2nccnc2c(=O)n1CCc1ccccc1)Nc1ncc(Br)s1 [Example Compound 29, N-(5-Bromothiazol-2-yl)-2-((4-oxo-3-phenethyl-3,4-dihydropteridin-2-yl)thio)acetamide]

Same assay, conditions: read-out: IC50 (PI3KC2α; ADP-Glo™ assay)

SMILES | IC50 [nM]
O=c1c2nccnc2nc(SCc2nc3ccccc3[nH]2)n1[C@@H]1C[C@H]1c1ccccc1 (relative stereo) [Example Compound 99, trans-2-(((1H-Benzo[d]imidazol-2-yl)methyl)thio)-3-(2-phenylcyclopropyl)pteridin-4(3H)-one] | 1800
Cc1nnc(NC(=O)CSc2nc3nccnc3c(=O)n2CCc2cccc(F)c2)s1 [Example Compound 5, 2-((3-(3-Fluorophenethyl)-4-oxo-3,4-dihydropteridin-2-yl)thio)-N-(5-methyl-1,3,4-thiadiazol-2-yl)acetamide] | 6300
O=C(CSc1nc2nccnc2c(=O)n1CCc1cccc(F)c1)Nc1nc(-c2ccc(F)cc2)cs1 [Example Compound 6, 2-((3-(3-Fluorophenethyl)-4-oxo-3,4-dihydropteridin-2-yl)thio)-N-(4-(4-fluorophenyl)thiazol-2-yl)acetamide] | 610
O=C(CSc1nc2nccnc2c(=O)n1CCc1cccc(F)c1)NC1CC1 [Example Compound 7, N-Cyclopropyl-2-((3-(3-fluorophenethyl)-4-oxo-3,4-dihydropteridin-2-yl)thio)acetamide] | 7100
O=C(CSc1nc2nccnc2c(=O)n1CCc1cccs1)Nc1nccs1 [Example Compound 8, 2-((4-Oxo-3-(2-(thiophen-2-yl)ethyl)-3,4-dihydropteridin-2-yl)thio)-N-(thiazol-2-yl)acetamide] | 1100
O=C(CSc1nc2nccnc2c(=O)n1CCc1cccc(C(F)(F)F)c1)Nc1nccs1 [Example Compound 9, 2-((4-Oxo-3-(3-(trifluoromethyl)phenethyl)-3,4-dihydropteridin-2-yl)thio)-N-(thiazol-2-yl)acetamide] | 1500
CC(Sc1nc2nccnc2c(=O)n1CCc1cccc(F)c1)C(=O)Nc1nccs1 (stereo not shown) [Example Compound 16, 2-((3-(3-Fluorophenethyl)-4-oxo-3,4-dihydropteridin-2-yl)thio)-N-(thiazol-2-yl)propanamide] | 5200
O=C(CSc1nc2nccnc2c(=O)n1-c1cccc(-c2ccccc2)c1)Nc1nccs1 [Example Compound 17, 2-((3-([1,1′-Biphenyl]-3-yl)-4-oxo-3,4-dihydropteridin-2-yl)thio)-N-(thiazol-2-yl)acetamide] | 9000
O=C(CSc1nc2nccnc2c(=O)n1CC(F)(F)c1ccccc1)Nc1nccs1 [Example Compound 18, 2-((3-(2,2-Difluoro-2-phenylethyl)-4-oxo-3,4-dihydropteridin-2-yl)thio)-N-(thiazol-2-yl)acetamide] | 2300
O=C(CSc1nc2nccnc2c(=O)n1C1CCc2ccccc21)Nc1nccs1 (stereo not shown) [Example Compound 19, 2-((3-(2,3-Dihydro-1H-inden-1-yl)-4-oxo-3,4-dihydropteridin-2-yl)thio)-N-(thiazol-2-yl)acetamide] | 1600
O=C(CSc1nc2nccnc2c(=O)n1C1CC1c1ccccc1)Nc1nccs1 (stereo not shown) [Example Compound 21, 2-((4-Oxo-3-(2-phenylcyclopropyl)-3,4-dihydropteridin-2-yl)thio)-N-(thiazol-2-yl)acetamide] | 12000
O=C(CSc1nc2nccnc2c(=O)n1CCc1ccccc1)Nc1nc(C(=O)N2CCOCC2)cs1 [Example Compound 25, N-(4-(Morpholine-4-carbonyl)thiazol-2-yl)-2-((4-oxo-3-phenethyl-3,4-dihydropteridin-2-yl)thio)acetamide] | 3500

Next, values leading:

IC50 [nM] | SMILES
120 | O=C(CSc1nc2nccnc2c(=O)n1CCc1ccccc1)Nc1nc(-c2cccc(O)c2)cs1 [Example Compound 1, N-(4-(3-Hydroxyphenyl)thiazol-2-yl)-2-((4-oxo-3-phenethyl-3,4-dihydropteridin-2-yl)thio)acetamide]
1700 | CS(=O)(=O)Nc1ccc(-c2csc(NC(=O)CSc3nc4nccnc4c(=O)n3CCc3ccccc3)n2)cc1 [Example Compound 2, N-(4-(4-(Methylsulfonamido)phenyl)thiazol-2-yl)-2-((4-oxo-3-phenethyl-3,4-dihydropteridin-2-yl)thio)acetamide]
2100 | O=C(CSc1nc2nccnc2c(=O)n1CCc1cccc(F)c1)Nc1ncco1 [Example Compound 3, 2-((3-(3-Fluorophenethyl)-4-oxo-3,4-dihydropteridin-2-yl)thio)-N-(oxazol-2-yl)acetamide]
840 | O=C(CSc1nc2nccnc2c(=O)n1CCc1cccc(F)c1)Nc1nccs1 [Example Compound 4, 2-((3-(3-Fluorophenethyl)-4-oxo-3,4-dihydropteridin-2-yl)thio)-N-(thiazol-2-yl)acetamide]
1260 | O=C(CSc1nc2nccnc2c(=O)n1CCc1ccccc1)Nc1nc(-c2ccccc2)cs1 [Example Compound 10, 2-((4-Oxo-3-phenethyl-3,4-dihydropteridin-2-yl)thio)-N-(4-phenylthiazol-2-yl)acetamide]
130 | CS(=O)(=O)Nc1cccc(-c2csc(NC(=O)CSc3nc4nccnc4c(=O)n3CCc3ccccc3)n2)c1 [Example Compound 12, N-(4-(3-(Methylsulfonamido)phenyl)thiazol-2-yl)-2-((4-oxo-3-phenethyl-3,4-dihydropteridin-2-yl)thio)acetamide]
13000 | O=C(CSc1nc2cccnc2c(=O)n1CCc1ccccc1)Nc1nccs1 [Example Compound 13, 2-((4-Oxo-3-phenethyl-3,4-dihydropyrido[3,2-d]pyrimidin-2-yl)thio)-N-(thiazol-2-yl)acetamide]
2800 | O=C(CSc1nc2nccnc2c(=O)n1CCc1ccccc1)Nc1ncco1 [Example Compound 14, N-(Oxazol-2-yl)-2-((4-oxo-3-phenethyl-3,4-dihydropteridin-2-yl)thio)acetamide]
6000 | O=C(CSc1nc2nccnc2c(=O)n1CCc1ccccc1)Nc1ccccc1F [Example Compound 15, N-(2-Fluorophenyl)-2-((4-oxo-3-phenethyl-3,4-dihydropteridin-2-yl)thio)acetamide]
2000 | O=C(CSc1nc2nccnc2c(=O)n1CCc1ccccc1)Nc1ncccn1 [Example Compound 20, 2-((4-Oxo-3-phenethyl-3,4-dihydropteridin-2-yl)thio)-N-(pyrimidin-2-yl)acetamide]
3300 | O=C(CSc1nc2nccnc2c(=O)n1CCc1ccccc1)Nc1ccccc1 [Example Compound 22, 2-((4-Oxo-3-phenethyl-3,4-dihydropteridin-2-yl)thio)-N-phenylacetamide]
760 | O=C(CSc1nc2nccnc2c(=O)n1CCc1ccccc1)Nc1nc(-c2ccsc2)cs1 [Example Compound 23, 2-((4-Oxo-3-phenethyl-3,4-dihydropteridin-2-yl)thio)-N-(4-(thiophen-3-yl)thiazol-2-yl)acetamide]
2200 | COC(=O)Cc1csc(NC(=O)CSc2nc3nccnc3c(=O)n2CCc2ccccc2)n1 [Example Compound 24, Methyl 2-(2-(2-((4-oxo-3-phenethyl-3,4-dihydropteridin-2-yl)thio)acetamido)thiazol-4-yl)acetate]
1500 | O=C(CSc1nc2nccnc2c(=O)n1CCc1ccccc1)Nc1nc(-c2cccc(F)c2)cs1 [Example Compound 26, N-(4-(3-Fluorophenyl)thiazol-2-yl)-2-((4-oxo-3-phenethyl-3,4-dihydropteridin-2-yl)thio)acetamide]
17200 | O=C(CSc1nc2nccnc2c(=O)n1CCc1ccccc1)Nc1cc(-c2ccccc2)cs1 [Example Compound 27, 2-((4-Oxo-3-phenethyl-3,4-dihydropteridin-2-yl)thio)-N-(4-phenylthiophen-2-yl)acetamide]
7600 | N#Cc1ccc(NC(=O)CSc2nc3nccnc3c(=O)n2CCc2ccccc2)nc1 [Example Compound 28, N-(5-Cyanopyridin-2-yl)-2-((4-oxo-3-phenethyl-3,4-dihydropteridin-2-yl)thio)acetamide]
6600 | O=C(CSc1nc2nccnc2c(=O)n1CCc1ccccc1)Nc1ncc(Br)s1 [Example Compound 29, N-(5-Bromothiazol-2-yl)-2-((4-oxo-3-phenethyl-3,4-dihydropteridin-2-yl)thio)acetamide]
5800 | Cc1ccc(-c2csc(NC(=O)CSc3nc4nccnc4c(=O)n3CCc3ccccc3)n2)s1 [Example Compound 30, N-(4-(5-Methylthiophen-2-yl)thiazol-2-yl)-2-((4-oxo-3-phenethyl-3,4-dihydropteridin-2-yl)thio)acetamide]
